The values that follow come from EPA's ToxValDB 9.5 (doi:10.2903/j.efsa.2008.168r).

One series relates to Pimephales promelas. Conditions: chronic/long-term; duration: 32 days.
Another series concerns Canidae. To be noted: chronic; duration: 1 years; oral; Dog Other; body weight.
A further series relates to Bibionidae. To be noted: chronic/long-term; duration: 26 days.
The test system of the next series is Daphnia magna. Conditions: chronic/long-term; duration: 21 days; reproduction.
The test system of the next series is Oncorhynchus mykiss. Conditions: acute; duration: 96 hours; mortality.
A further series deals with Coturnix japonica. To be noted: acute, oral, mortality.
The subject of another series is Anatidae. Conditions: oral, mortality.
In another series the test system is Mus musculus. Conditions: chronic; duration: 2 years; body weight.
In another series the test system is Apis mellifera. To be noted: acute; duration: 48 hours; oral; unspecified; mortality.
The subject of the next series is Oryctolagus sp. Conditions: reproduction developmental; body weight.
The next series deals with Folsomia candida. Conditions: chronic/long-term.
The subject of another series is Aphidius rhopalosiphi. Nature of the series: LR50; higher = less toxic. To be noted: not reported; mortality.

In general, NOAEL refers to the highest tested level that showed no adverse finding. For the compound `Nc1nc(N)nc(NC2CC2)n1` [Cyromazine], the NOEC in the series on Pimephales promelas is 14 mg/L; in the series with Tagia sp. (chronic/long-term, duration: 56 days, reproduction), 333 mg/kg; in the series on Bibionidae, 0.025 mg/L; with Daphnia magna, 0.31 mg/L; with Folsomia candida it was 9.6 mg/kg. The LC50 with Tagia sp. (acute, duration: 14 days, mortality) is over 1000 mg/kg; with Anas platyrhynchos (short-term, oral, feed, mortality), over 526 mg/kg-day; with Oncorhynchus mykiss, over 100 µg/mL; in the series on Colinus virginianus (acute, oral, diet, mortality), over 1370 mg/kg-day; in the series on Coturnix japonica (diet), over 683 mg/kg-day; in the series on Anatidae (short-term, feed) it was over 1120 mg/kg-day. The NOAEL was determined as 5.74 mg/kg-day with Canidae; 6.5 mg/kg-day with Mus musculus; 10 mg/kg-day with Oryctolagus sp.; 30 mg/kg-day in the series on Rattus norvegicus (reproduction developmental, reproduction). Moreover, the LD50 is over 2510 mg/kg in the series with Anas platyrhynchos (acute, oral, unspecified, mortality); 1780 mg/kg in the series with Colinus virginianus (acute, oral, mortality); 2340 mg/kg with Coturnix japonica; over 1000 mg/kg with Anatidae (acute, unspecified); 186 µg/piece in the series with Apis mellifera; 3390 mg/kg in the series with Rattus norvegicus (acute, mortality). The NOEL in the series on Anas platyrhynchos (reproductive) came to 38.3 mg/kg-day; in the series on Colinus virginianus (reproduction developmental) it was 110 mg/kg-day. For the same compound, the LR50 in the series on Aphidius rhopalosiphi was at least 891 g/ha.
